Experiments:
Type in all cases: biochemical
p110α/p85α = p110α/p85α (Homo sapiens, UniProt P42336); test: Transcreener KINASE Assay, kinase inhibition of p110α/p85α; details: 1 uM test compound
Protocol: PI3K kinases including p110α/p85α, p110δ/p85α and p110γ are purchased from Invitrogen, and p110β/p85α is from Millipore.
Primary screening data and IC50 values are measured using Transcreener™ KINASE Assay (Bellbrook, Catalog #3003-10K). […] It is a universal, homogenous, high throughput screening (HTS) technology using a far-red, competitive fluorescence polarization immunoassay based on the detection of ADP to monitor the activity of enzymes that catalyze group transfer reactions. Briefly, the Transcreener KINASE Assay is designed as a simple two-part, endpoint assay.
In the first step, the 25 ul kinase reaction is performed by preparing a reaction mixture containing 5 ul test compound (2% DMSO final concentration), 10 ul kinase, buffer (50 mM HEPES, 100 mM NaCl, 1 mM EGTA, 0.03% CHAPS, 3 mM MgCl2, and freshly supplemented 1 mM DTT), and 10 ul 30 uM PIP2/10 uM ATP. The plate is sealed and incubated for 80 min at room temperature. Next, 25 ul ADP detection mix is added per well. The plate is sealed again and incubated for 60 min at room temperature, and then measure fluorescence polarization by Tecan Infinite F500 Reader.
Data is analyzed and IC50s are generated using the add-in software for Microsoft Excel, Xlfit™ (version 2.0). IH %=(ADP amount under 2% DMSO-ADP amount under test compound)/ADP amount under 2% DMSO.

p110β/p85α = p110β/p85α (Homo sapiens, UniProt P42338); test: Transcreener KINASE Assay, kinase inhibition of p110β/p85α; details: for PI3Kβ IH % @ 1 uM: 1 uM test compound; for IC50: read-out: PI3Kβ IC50
Method in brief: (§1)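 Recombinant PI3K/p85α heterodimers were incubated with compound (2% DMSO final) for 80 min at room temperature in 50 mM HEPES, 100 mM NaCl, 1 mM EGTA, 0.03% CHAPS, 3 mM MgCl2, 1 mM DTT, with substrate added as a 30 uM PIP2/10 uM ATP mix. ADP was detected by competitive fluorescence polarization immunoassay.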

p110δ/p85α = p110δ/p85α (Homo sapiens, UniProt O00329); test: Transcreener KINASE Assay, kinase inhibition of p110δ/p85α; details: for PI3Kδ IH % @ 1 uM: 1 uM test compound; for IC50: read-out: PI3Kδ IC50
p110δ/p85α, sequence (O00329 whole entry): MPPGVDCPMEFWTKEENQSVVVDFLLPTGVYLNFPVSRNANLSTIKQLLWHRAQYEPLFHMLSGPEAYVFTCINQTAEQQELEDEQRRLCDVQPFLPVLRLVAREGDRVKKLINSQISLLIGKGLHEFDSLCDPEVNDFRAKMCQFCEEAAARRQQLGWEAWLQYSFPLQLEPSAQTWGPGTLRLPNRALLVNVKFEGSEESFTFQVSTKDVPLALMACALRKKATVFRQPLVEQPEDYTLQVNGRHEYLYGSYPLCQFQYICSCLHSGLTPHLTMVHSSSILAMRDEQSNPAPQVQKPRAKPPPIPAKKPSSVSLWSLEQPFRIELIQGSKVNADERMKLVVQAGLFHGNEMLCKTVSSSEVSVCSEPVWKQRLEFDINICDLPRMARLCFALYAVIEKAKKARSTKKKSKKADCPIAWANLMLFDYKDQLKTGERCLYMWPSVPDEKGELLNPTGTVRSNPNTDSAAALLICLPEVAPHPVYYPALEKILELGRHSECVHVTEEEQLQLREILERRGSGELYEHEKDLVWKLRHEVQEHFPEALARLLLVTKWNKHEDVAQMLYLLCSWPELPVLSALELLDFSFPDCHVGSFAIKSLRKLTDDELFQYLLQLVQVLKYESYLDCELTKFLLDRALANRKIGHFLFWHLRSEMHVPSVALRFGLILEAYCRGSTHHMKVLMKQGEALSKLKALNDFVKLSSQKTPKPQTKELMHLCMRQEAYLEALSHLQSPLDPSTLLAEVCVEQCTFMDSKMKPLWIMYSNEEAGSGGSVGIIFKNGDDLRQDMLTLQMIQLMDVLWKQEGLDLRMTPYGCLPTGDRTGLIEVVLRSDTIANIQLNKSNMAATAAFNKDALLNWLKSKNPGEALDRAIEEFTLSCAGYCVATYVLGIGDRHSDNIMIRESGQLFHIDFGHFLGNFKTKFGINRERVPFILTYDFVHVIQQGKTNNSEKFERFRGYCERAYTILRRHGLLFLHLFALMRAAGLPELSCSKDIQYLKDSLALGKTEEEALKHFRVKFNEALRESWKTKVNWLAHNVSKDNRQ
p110δ/p85α, sequence (P27986 whole entry partner): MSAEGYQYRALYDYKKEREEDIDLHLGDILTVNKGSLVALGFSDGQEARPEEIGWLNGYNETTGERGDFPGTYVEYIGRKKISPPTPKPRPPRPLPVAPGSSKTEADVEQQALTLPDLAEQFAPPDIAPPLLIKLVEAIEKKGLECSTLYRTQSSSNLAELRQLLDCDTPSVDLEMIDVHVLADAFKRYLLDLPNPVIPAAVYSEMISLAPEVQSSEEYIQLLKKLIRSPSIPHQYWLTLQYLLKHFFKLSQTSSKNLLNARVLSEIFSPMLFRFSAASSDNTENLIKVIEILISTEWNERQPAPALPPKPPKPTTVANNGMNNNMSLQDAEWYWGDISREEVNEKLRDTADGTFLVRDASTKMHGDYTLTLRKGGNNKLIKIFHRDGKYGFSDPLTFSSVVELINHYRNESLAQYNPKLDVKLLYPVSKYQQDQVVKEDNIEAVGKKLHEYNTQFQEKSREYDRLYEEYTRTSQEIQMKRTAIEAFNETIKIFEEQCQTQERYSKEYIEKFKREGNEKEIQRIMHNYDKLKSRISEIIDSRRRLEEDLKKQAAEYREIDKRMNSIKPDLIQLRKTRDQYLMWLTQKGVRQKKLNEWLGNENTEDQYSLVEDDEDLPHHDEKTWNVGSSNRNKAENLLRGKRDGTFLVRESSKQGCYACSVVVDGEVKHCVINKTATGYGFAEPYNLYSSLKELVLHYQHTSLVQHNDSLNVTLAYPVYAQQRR
Method in brief: as §1

p110γ = p110γ (Homo sapiens, UniProt P48736); test: Transcreener KINASE Assay, kinase inhibition of p110γ; details: for PI3Kγ IH % @ 1 uM: 1 uM test compound; for IC50: read-out: PI3Kγ IC50
p110γ, sequence (P48736 whole entry, canonical isoform): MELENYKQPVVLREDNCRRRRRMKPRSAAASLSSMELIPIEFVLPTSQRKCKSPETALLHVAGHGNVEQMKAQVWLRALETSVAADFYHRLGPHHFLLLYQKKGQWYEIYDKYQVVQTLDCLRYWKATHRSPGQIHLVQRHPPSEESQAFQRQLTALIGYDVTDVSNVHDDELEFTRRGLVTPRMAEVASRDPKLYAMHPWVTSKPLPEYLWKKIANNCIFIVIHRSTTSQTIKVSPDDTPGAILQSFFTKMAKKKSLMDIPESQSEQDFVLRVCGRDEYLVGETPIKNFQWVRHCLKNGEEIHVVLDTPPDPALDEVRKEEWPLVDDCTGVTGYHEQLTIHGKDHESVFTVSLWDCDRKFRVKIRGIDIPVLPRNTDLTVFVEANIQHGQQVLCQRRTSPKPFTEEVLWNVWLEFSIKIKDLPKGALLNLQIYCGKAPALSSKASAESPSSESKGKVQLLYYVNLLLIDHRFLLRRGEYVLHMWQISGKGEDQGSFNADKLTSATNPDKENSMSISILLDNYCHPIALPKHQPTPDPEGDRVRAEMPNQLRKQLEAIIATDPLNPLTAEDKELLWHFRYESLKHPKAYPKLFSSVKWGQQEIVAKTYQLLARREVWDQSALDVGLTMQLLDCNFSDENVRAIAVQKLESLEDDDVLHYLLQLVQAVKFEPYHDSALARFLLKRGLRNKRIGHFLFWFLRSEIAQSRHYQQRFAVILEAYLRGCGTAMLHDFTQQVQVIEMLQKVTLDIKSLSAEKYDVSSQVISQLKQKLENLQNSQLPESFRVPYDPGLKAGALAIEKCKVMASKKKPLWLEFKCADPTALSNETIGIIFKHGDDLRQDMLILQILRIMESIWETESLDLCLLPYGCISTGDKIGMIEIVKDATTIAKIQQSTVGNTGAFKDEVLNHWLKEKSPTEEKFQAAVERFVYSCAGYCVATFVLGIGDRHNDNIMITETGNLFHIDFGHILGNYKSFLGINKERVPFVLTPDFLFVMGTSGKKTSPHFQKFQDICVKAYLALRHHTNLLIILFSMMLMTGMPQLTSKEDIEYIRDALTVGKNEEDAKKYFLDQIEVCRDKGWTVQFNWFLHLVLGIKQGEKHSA
Method in brief: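 ADP-detecting fluorescence polarization immunoassay run as two-step endpoint: kinase reaction for 80 min, detection for 60 min, both at room temperature. Enzymes are recombinant p110 isoforms with p85α, except p110γ. IC50s derived from fitted inhibition curves.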

p110α/p85α, sequence (P42336 whole entry): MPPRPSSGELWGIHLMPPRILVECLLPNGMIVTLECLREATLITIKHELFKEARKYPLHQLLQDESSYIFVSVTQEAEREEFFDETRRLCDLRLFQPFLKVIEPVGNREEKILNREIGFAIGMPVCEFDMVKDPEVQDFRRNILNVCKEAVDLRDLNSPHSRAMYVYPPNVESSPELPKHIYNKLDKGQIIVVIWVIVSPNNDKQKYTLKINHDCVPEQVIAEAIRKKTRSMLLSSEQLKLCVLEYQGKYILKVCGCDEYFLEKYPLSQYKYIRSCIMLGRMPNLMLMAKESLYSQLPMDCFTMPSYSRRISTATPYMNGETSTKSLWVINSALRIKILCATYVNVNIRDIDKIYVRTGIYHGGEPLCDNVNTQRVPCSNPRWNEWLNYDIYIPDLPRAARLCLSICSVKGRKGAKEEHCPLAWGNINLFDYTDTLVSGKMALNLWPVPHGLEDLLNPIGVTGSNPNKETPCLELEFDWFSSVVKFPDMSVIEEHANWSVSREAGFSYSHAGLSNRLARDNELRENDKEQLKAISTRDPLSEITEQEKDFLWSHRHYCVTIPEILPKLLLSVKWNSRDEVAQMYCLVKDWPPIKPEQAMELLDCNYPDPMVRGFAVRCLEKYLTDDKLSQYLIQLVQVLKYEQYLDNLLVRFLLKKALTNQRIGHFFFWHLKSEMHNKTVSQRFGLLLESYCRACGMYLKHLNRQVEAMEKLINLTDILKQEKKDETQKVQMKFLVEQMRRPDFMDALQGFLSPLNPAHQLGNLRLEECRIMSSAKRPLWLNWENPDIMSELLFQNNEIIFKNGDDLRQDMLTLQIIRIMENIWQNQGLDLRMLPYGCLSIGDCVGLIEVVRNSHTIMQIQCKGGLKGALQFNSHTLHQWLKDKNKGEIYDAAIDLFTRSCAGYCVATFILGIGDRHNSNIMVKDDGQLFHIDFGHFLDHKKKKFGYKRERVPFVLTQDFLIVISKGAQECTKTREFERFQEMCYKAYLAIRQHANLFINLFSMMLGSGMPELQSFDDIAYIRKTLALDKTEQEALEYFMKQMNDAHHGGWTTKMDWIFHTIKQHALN
p110α/p85α, sequence (P27986 whole entry partner): as the sequence (P27986 whole entry partner) above

Row | Compound | PI3Kα IH % @ 1 uM (p110α/p85α) | PI3Kβ IH % @ 1 uM (p110β/p85α) | PI3Kδ IH % @ 1 uM (p110δ/p85α) | IC50 (p110δ/p85α) | PI3Kγ IH % @ 1 uM (p110γ) | IC50 (p110γ) | IC50 (p110β/p85α)
1 | O=c1c2c(Cl)ccn2nc([C@@H]2CCN2c2ncnc3[nH]cnc23)n1-c1ccccc1 [Compound 29] | −1.5% | 18.5% | >100% | 84 nM | 72.5% |  | 
2 | Nc1ncnc(N2CC[C@H]2c2nn3ccc(Cl)c3c(=O)n2-c2ccccc2)c1Cl [Compound 30] | −20.5% | 51.3% | >100% | 9 nM | 74.1% | 94 nM | 
3 | N#Cc1c(N)ncnc1N1CC[C@H]1c1nn2ccc(Cl)c2c(=O)n1-c1ccccc1 [Compound 31] | −17.7% | 35.3% | >100% | 16 nM | 81.5% | 153 nM | 
4 | N#Cc1c(N)ncnc1N1CCC[C@H]1c1nn2ccc(Cl)c2c(=O)n1-c1ccccc1 [Compound 32] | 54.5% | 96.7% | >100% | 1 nM | 94.8% | 8 nM | 13 nM
5 | COc1cccc(-n2c([C@@H]3CCN3c3ncnc4[nH]cc(C#N)c34)nn3ccc(Cl)c3c2=O)c1 [Compound 34] | −2.5% | 12.4% | 96.8% | 29 nM | 84.6% | 203 nM | 
6 | COc1cccc(-n2c([C@@H]3CCN3c3ncnc(N)c3C#N)nn3ccc(Cl)c3c2=O)c1 [Compound 35] | −6.6% | 24.7% | 94.1% | 57 nM | 61.2% |  | 
7 | COc1cccc(-n2c([C@@H]3CCCN3c3ncnc4[nH]cnc34)nn3ccc(Cl)c3c2=O)c1 [Compound 36] | 6.4% | 60.9% | 99.1% |  | 90.8% | 35 nM | 
8 | O=c1c2c(Cl)ccn2nc([C@@H]2CCCN2c2ncnc3[nH]cnc23)n1-c1cccc(F)c1 [Compound 38] | −3.3% | 54.8% |  | 3 nM | 93.5% |  | 
9 | Cc1ccn2nc([C@@H]3CCCN3c3ncnc4[nH]cc(C#N)c34)n(-c3ccccc3)c(=O)c12 [Compound 42] | 71.8% | 79.8% | >100% |  | 91.2% | 5 nM | 186 nM
10 | Cc1ccn2nc([C@@H]3CCCN3c3ncnc4[nH]cnc34)n(-c3ccccc3)c(=O)c12 [Compound 43] | 35.1% | 66.0% | >100% | 2 nM | 96.6% | 19 nM | 
11 | Cc1ccn2nc([C@@H]3CCCN3c3nc(N)nc4[nH]cnc34)n(-c3ccccc3)c(=O)c12 [Compound 44] | 46.7% | 74.3% | >100% | 1 nM | 95.2% | 5 nM | 302 nM
12 | N#Cc1c[nH]c2ncnc(N3CCC[C@H]3c3nn4ccc(Cl)c4c(=O)n3Cc3ccccc3)c12 [Compound 62] | 7.1% | 42.2% | 95.4% | 39 nM | >100% | 39 nM | 
13 | CC(C)Cn1c([C@@H]2CCCN2c2ncnc3[nH]cc(C#N)c23)nn2ccc(Cl)c2c1=O [Compound 64] | 32.6% | 78.8% | 98.9% | 3 nM | 89.9% | 41 nM | 251 nM

Source: US20150307520A1, “NOVEL HETEROARYL AND HETEROCYCLE COMPOUNDS, COMPOSITIONS AND METHODS THEREOF” (HUTCHISON MEDIPHARMA LIMITED, priority 2012, published 2015)
